Experimental data reported in patent US20220281848A1, “PYRAZOLE-SUBSTITUTED PYRROLIDINONES AS HERBICIDES” (FMC Corporation, priority 2019, published 2022).

Columns and labels:
Type in all cases: in vivo
wheat [1] = experiment: Test D post-emergence, wheat seed treated with a herbicide safener; conditions: "Cereals" Postemergent
Experimental: A formulation containing 50 g/L of the test chemical was prepared by dissolving the active ingredient in a mixture of organic solvents and emulsifier, details of which are provided in the table. This formulation was then mixed with a small, variable amount of acetone to aid dissolution, before addition of a 0.2% v/v aqueous solution of an adjuvant, as the aqueous diluent, to form an aqueous spray solution which contains a predetermined concentration of the active ingredient.
This aqueous spray solution was then sprayed onto plants including maize and wheat that had been seed treated with a herbicide safener, after one day's cultivation (for pre-emergence) or after about 12 days' cultivation (for post-emergence). The plants were grown from seeds sown in standard soil, placed in a glasshouse under controlled conditions (at 24/18° C. or 20/16° C., day/night; 16 h light; 65% humidity). After spray application the plants were then grown in a glasshouse under the same conditions and watered twice daily. After 15 d for post-emergence and 20 DAA for pre-emergence the test was evaluated (100=total damage to plant; 0=no damage to plant).

corn (Zea mays, ZEAMX) = experiment: Test A pre-emergence, corn; conditions: after 13 d
How it was run: (§1)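 After sowing in pots and a single day of glasshouse cultivation, the soil was treated with an aqueous spray of the compound (acetone/water 50:50, 0.5% Tween 20) giving 15.625, 62.5 or 250 g/ha. Evaluation after 13 d used a scale where 0 meant no damage and 100 total damage.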

[2] = test system: giant foxtail (Setaria faberi, SETFA); experiment: Test A pre-emergence, giant foxtail; conditions: after 13 d
How it was run: as §1

[3] = test system: redroot pigweed (Amaranthus retroflexus, AMARE); experiment: Test A post-emergence, redroot pigweed; conditions: after 13 d
How it was run: (§2)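 Visual damage rating (0 no damage to 100 total damage) was made 13 d after spraying. The spray was 15.625, 62.5 or 250 g/ha in 50:50 acetone/water with 0.5% Tween 20, applied to 8-day-old glasshouse plants kept at 24/16° C, 14 h light and 65% humidity.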

wheat [4] = experiment: Test D pre-emergence, wheat seed treated with a herbicide safener; conditions: 100=total damage, 0=no damage
How it was run: (§3)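 Damage was rated visually from 0 (none) to 100 (total), at 20 DAA for pre-emergence and 15 d for post-emergence. Plants grew from safener-treated seed in a glasshouse at 24/18° C. or 20/16° C. day/night, 65% humidity, watered twice daily.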

[5] = test system: velvetleaf (Abutilon theophrasti, ABUTH); experiment: Test A post-emergence, velvetleaf; conditions: after 13 d
How it was run: as §2

[6] = test system: redroot pigweed (Amaranthus retroflexus, AMARE); experiment: Test A pre-emergence, redroot pigweed; conditions: after 13 d
How it was run: as §1

maize = experiment: Test D pre-emergence, maize seed treated with a herbicide safener; conditions: ZEAMX, preemergent, 20 DAA
How it was run: as §3

[7] = test system: ivy-leaved morning glory (Ipomoea hederacea, IPOHE); experiment: Test A post-emergence, ivy-leaved morning glory; conditions: after 13 d
How it was run: as §2

[8] = test system: barnyardgrass (Echinochloa crus-galli, ECHCG); experiment: Test A post-emergence, barnyardgrass; conditions: after 13 d
How it was run: as §2

[9] = test system: giant foxtail (Setaria faberi, SETFA); experiment: Test A post-emergence, giant foxtail; conditions: after 13 d
How it was run: as §2

[10] = Rates 130, evaluated after 15 d
[11] = Rates 250, evaluated after 15 d
[12] = Rates 500, evaluated after 15 d

Structure (SMILES) | TRZAW damage rating (100=total damage to plant; 0=no damage to plant) (wheat [1]; [10]) | TRZAW damage rating (100=total damage to plant; 0=no damage to plant) (wheat [1]; [11]) | TRZAW damage rating (100=total damage to plant; 0=no damage to plant) (wheat [1]; [12]) | damage to plant (100=total damage; 0=no damage) ZEAMX (corn (Zea mays, ZEAMX); Pre-Emergence at 15.625 g/ha) | damage to plant (100=total damage; 0=no damage) ZEAMX (corn (Zea mays, ZEAMX); Pre-Emergence at 62.5 g/ha) | damage to plant (100=total damage; 0=no damage) ZEAMX (corn (Zea mays, ZEAMX); Pre-Emergence at 250 g/ha) | damage to plant (100=total damage; 0=no damage) SETFA ([2]; Pre-Emergence at 15.625 g/ha) | damage to plant (100=total damage; 0=no damage) SETFA ([2]; Pre-Emergence at 62.5 g/ha) | damage to plant (100=total damage; 0=no damage) SETFA ([2]; Pre-Emergence at 250 g/ha) | damage to plant (100=total damage; 0=no damage) AMARE ([3]; Post-Emergence at 15.625 g/ha) | damage to plant (100=total damage; 0=no damage) AMARE ([3]; Post-Emergence at 62.5 g/ha) | damage to plant (100=total damage; 0=no damage) AMARE ([3]; Post-Emergence at 250 g/ha) | damage to plant, TRZAW (wheat [4]; rate 15, 20 DAA) | damage to plant, TRZAW (wheat [4]; rate 30, 20 DAA) | damage to plant, TRZAW (wheat [4]; rate 60, 20 DAA) | damage to plant, TRZAW (wheat [4]; rate 130, 20 DAA) | damage to plant, TRZAW (wheat [4]; rate 250, 20 DAA) | damage to plant, TRZAW (wheat [4]; rate 500, 20 DAA) | damage to plant (100=total damage; 0=no damage) ABUTH ([5]; Post-Emergence at 15.625 g/ha) | damage to plant (100=total damage; 0=no damage) ABUTH ([5]; Post-Emergence at 62.5 g/ha) | other results
CN1CC(c2cc(C(F)(F)F)n(C)n2)C(C(=O)Nc2ccc(F)cc2F)C1=O (racemic) [Compound 6] | 0 | 10 | 20 | 10 | 20 | 60 | 80 | 90 | 90 | 0 | 10 | 10 | 0 | 0 | 0 | 0 | 0 | 10 | 60 | 70 | damage to plant (100=total damage; 0=no damage) ABUTH ([5]; Post-Emergence at 250 g/ha): 60; damage to plant (100=total damage; 0=no damage) AMARE ([6]; Pre-Emergence at 15.625 g/ha): 20; damage to plant (100=total damage; 0=no damage) AMARE ([6]; Pre-Emergence at 62.5 g/ha): 20; damage to plant (100=total damage; 0=no damage) AMARE ([6]; Pre-Emergence at 250 g/ha): 50; damage to plant (100=total damage to plant; 0=no damage to plant), ZEAMX (maize; rate 15): 0; damage to plant (100=total damage to plant; 0=no damage to plant), ZEAMX (maize; rate 30): 0; damage to plant (100=total damage to plant; 0=no damage to plant), ZEAMX (maize; rate 60): 0; damage to plant (100=total damage to plant; 0=no damage to plant), ZEAMX (maize; rate 130): 0; damage to plant (100=total damage to plant; 0=no damage to plant), ZEAMX (maize; rate 250): 0; damage to plant (100=total damage to plant; 0=no damage to plant), ZEAMX (maize; rate 500): 0; damage to plant (100=total damage; 0=no damage) IPOHE ([7]; Post-Emergence at 15.625 g/ha): 40; damage to plant (100=total damage; 0=no damage) IPOHE ([7]; Post-Emergence at 62.5 g/ha): 20; damage to plant (100=total damage; 0=no damage) IPOHE ([7]; Post-Emergence at 250 g/ha): 10; damage to plant (100=total damage; 0=no damage) ECHCG ([8]; Post-Emergence at 15.625 g/ha): 70; damage to plant (100=total damage; 0=no damage) ECHCG ([8]; Post-Emergence at 62.5 g/ha): 70; damage to plant (100=total damage; 0=no damage) ECHCG ([8]; Post-Emergence at 250 g/ha): 70; damage to plant (100=total damage; 0=no damage) SETFA ([9]; Post-Emergence at 15.625 g/ha): 0; damage to plant (100=total damage; 0=no damage) SETFA ([9]; Post-Emergence at 62.5 g/ha): 70; damage to plant (100=total damage; 0=no damage) SETFA ([9]; Post-Emergence at 250 g/ha): 70
CN1CC(c2cc(C(F)(F)F)n(C)n2)C(C(=O)Nc2ccc(F)c(F)c2F)C1=O (racemic) [Compound 17] | 0 | 40 | 70 | 60 | 70 | 90 | 90 | 90 | 90 | 0 | 20 | 50 | 0 | 0 | 0 | 50 | 60 | 90 | 0 | 0 | damage to plant (100=total damage; 0=no damage) ABUTH ([5]; Post-Emergence at 250 g/ha): 0; damage to plant (100=total damage; 0=no damage) AMARE ([6]; Pre-Emergence at 15.625 g/ha): 0; damage to plant (100=total damage; 0=no damage) AMARE ([6]; Pre-Emergence at 62.5 g/ha): 10; damage to plant (100=total damage; 0=no damage) AMARE ([6]; Pre-Emergence at 250 g/ha): 20; damage to plant (100=total damage to plant; 0=no damage to plant), ZEAMX (maize; rate 15): 0; damage to plant (100=total damage to plant; 0=no damage to plant), ZEAMX (maize; rate 30): 0; damage to plant (100=total damage to plant; 0=no damage to plant), ZEAMX (maize; rate 60): 0; damage to plant (100=total damage to plant; 0=no damage to plant), ZEAMX (maize; rate 130): 0; damage to plant (100=total damage to plant; 0=no damage to plant), ZEAMX (maize; rate 250): 10; damage to plant (100=total damage to plant; 0=no damage to plant), ZEAMX (maize; rate 500): 30; damage to plant (100=total damage; 0=no damage) IPOHE ([7]; Post-Emergence at 15.625 g/ha): 0; damage to plant (100=total damage; 0=no damage) IPOHE ([7]; Post-Emergence at 62.5 g/ha): 0; damage to plant (100=total damage; 0=no damage) IPOHE ([7]; Post-Emergence at 250 g/ha): 0; damage to plant (100=total damage; 0=no damage) ECHCG ([8]; Post-Emergence at 15.625 g/ha): 60; damage to plant (100=total damage; 0=no damage) ECHCG ([8]; Post-Emergence at 62.5 g/ha): 70; damage to plant (100=total damage; 0=no damage) ECHCG ([8]; Post-Emergence at 250 g/ha): 80; damage to plant (100=total damage; 0=no damage) SETFA ([9]; Post-Emergence at 15.625 g/ha): 60; damage to plant (100=total damage; 0=no damage) SETFA ([9]; Post-Emergence at 62.5 g/ha): 70; damage to plant (100=total damage; 0=no damage) SETFA ([9]; Post-Emergence at 250 g/ha): 80
COc1c(F)cccc1NC(=O)C1C(=O)N(C)CC1c1cc(C(F)(F)F)n(C)n1 (racemic) [Compound 18] | 0 | 10 | 40 | 30 | 60 | 80 | 90 | 90 | 90 | 0 | 0 | 0 | 0 | 0 | 0 | 0 | 20 | 30 | 0 | 0 | damage to plant (100=total damage; 0=no damage) ABUTH ([5]; Post-Emergence at 250 g/ha): 0; damage to plant (100=total damage; 0=no damage) AMARE ([6]; Pre-Emergence at 15.625 g/ha): 0; damage to plant (100=total damage; 0=no damage) AMARE ([6]; Pre-Emergence at 62.5 g/ha): 0; damage to plant (100=total damage; 0=no damage) AMARE ([6]; Pre-Emergence at 250 g/ha): 0; damage to plant (100=total damage to plant; 0=no damage to plant), ZEAMX (maize; rate 15): 0; damage to plant (100=total damage to plant; 0=no damage to plant), ZEAMX (maize; rate 30): 0; damage to plant (100=total damage to plant; 0=no damage to plant), ZEAMX (maize; rate 60): 0; damage to plant (100=total damage to plant; 0=no damage to plant), ZEAMX (maize; rate 130): 0; damage to plant (100=total damage to plant; 0=no damage to plant), ZEAMX (maize; rate 250): 0; damage to plant (100=total damage to plant; 0=no damage to plant), ZEAMX (maize; rate 500): 0; damage to plant (100=total damage; 0=no damage) IPOHE ([7]; Post-Emergence at 15.625 g/ha): 10; damage to plant (100=total damage; 0=no damage) IPOHE ([7]; Post-Emergence at 62.5 g/ha): 20; damage to plant (100=total damage; 0=no damage) IPOHE ([7]; Post-Emergence at 250 g/ha): 50; damage to plant (100=total damage; 0=no damage) ECHCG ([8]; Post-Emergence at 15.625 g/ha): 50; damage to plant (100=total damage; 0=no damage) ECHCG ([8]; Post-Emergence at 62.5 g/ha): 70; damage to plant (100=total damage; 0=no damage) ECHCG ([8]; Post-Emergence at 250 g/ha): 70; damage to plant (100=total damage; 0=no damage) SETFA ([9]; Post-Emergence at 15.625 g/ha): 50; damage to plant (100=total damage; 0=no damage) SETFA ([9]; Post-Emergence at 62.5 g/ha): 70; damage to plant (100=total damage; 0=no damage) SETFA ([9]; Post-Emergence at 250 g/ha): 70
